“Also recorded” adds a separate entry of the source.
Columns and labels:
[1] = system: VEGF induced angiogenesis; experiment: In vivo Matrigel plug angiogenesis assay; parameters: species or system B57l/6 mice; conditions: mice; for VEGF induced angiogenesis in Matrigel plugs (images, FIG. 1): plugs taken out on Day 7; for Efficacy in inhibition of VEGF induced angiogenesis by hemoglobin level (FIG. 2), compared with Sorafenib: hemoglobin by Drabkin's reagent kit, Day 7
Source text: In Vivo Matrigel Plug Angiogenesis Assay
Matrigel plug is made from a gelatinous protein mixture secreted by Engelbreth-Holm-Swarm (EHS) mouse sarcoma cells (produced and marketed by Corning Life Sciences and BD Biosciences). Matrigel resembles the complex extracellular environment found in many tissues and is used by cell biologists as a substrate (basement membrane matrix) for culturing assay.
The test animals were 5 to 8-week-aged B57l/6 mice. The Matrigel was mixed with PBS at a ratio of 4:1 to obtain the Matrigel plug. The mice were administered with the Matrigel plugs containing 30 IU heparin and VEGF 150 ng/ml (500 ul/mouse), and then divided into four groups (4 mice in one group), treated with Beauvericin i.p. or orally (GYT-088 Group), Sorafenib (Sorafenib Group) as a positive control, VEGF alone (Vehicle), and without any treatment (Ctrl). After one day, the animals were administered with the sorafenib i.p. at a dosage of 30 mg/kg or Beauvericin i.p. at a dosage of 2.4 mg/kg (0.1c.c./mice/day), or were orally administered with the Beauvericin at a dosage of 24 mg/kg once per day for six days. On Day 7, the animals were sacrificed and the Matrigel plugs were taken out for observation of angiogenesis. The hemoglobin of each mouse was also measured by Drabkin's reagent kit.

[2] = system: naturally-occurring diabetic macular edema in rhesus monkeys; experiment: Fundus photography (FP) of NPDR related changes in spontaneous DME rhesus monkeys; format: in vivo, Macaca mulatta (Rhesus Macaque)
Source text: (§1) Evaluation of Efficacy of beauvericin at different doses for 60 days on improving naturally-occurring diabetic macular edema in rhesus monkeys, providing a basis for clinical trial dose design and safety study.
(§2) Macaca mulatta (Rhesus Macaque) are used in the evaluation.
Secondary Endpoints and Safety Parameters: • (1) Fundus photography (FP). To detect changes of hemorrhage, exudate or vessel lesion before and after treatment; and • (2) Drug effect on metabolism and lipid profiles, liver and kidney function.
Non-human primates (NHPs) are extremely similar to humans in physiological function and structure of eyes. […]
Inclusion Criteria • (1) Female, age 13-18 years (equals to 40-60 years old in human adults), 6-7 kg; • (2) Diabetic duration: over 3 years; • (3) DME of single/both eyes; • (4) DME: the retinal thickness measured by Heidelberg Spectralis OCT in recent half year and diagnosed by FP/FFA with Kowa VX-20 Fundus Camera; • (5) CRT≥260 μm (Central Foveal Thickness) and/or Average Thickness of ETDRS regions≥319 μm. […] Nondiabetic monkey: Average thickness of the retina in nondiabetic animals was 192±11 μm at the fovea, and 307±15 and 328±13 measured at a distance of 1.5 mm from fovea on the temporal and nasal sides, respectively. […]

[3] = Drug observed in the eyes after oral administration (FIG. 3); format: in vivo
[4] = system: naturally-occurring diabetic macular edema in rhesus monkeys; experiment: Retinal thickness by OCT in spontaneous DME rhesus monkeys; format: in vivo, Macaca mulatta (Rhesus Macaque); conditions: for Macular Central Thickness, left eye / Macular Central Thickness, right eye / Fovea Thickness, left eye / Fovea Thickness, right eye: monkey #2003 (NPDR); for Macular Central Thickness, left eye: baseline 204; for Macular Central Thickness, right eye: baseline 210; for Fovea Thickness, left eye: baseline 257; for Fovea Thickness, right eye: baseline 260
Procedure: as §1, §2
Retinal Thickness by OCT. To Quantify Retinal Thickness Before and after Treatment.
Retinal thickness is evaluated by 2 methods using OCT: (1) at the fovea and 1.5 mm on either side of it (three point method), and (2) using a 52-point grid to determine the fraction of macula that had thicknesses in different thickness groupings (250-300, 301-350, 351-400 μm, etc.). This method was developed by the Primed team in collaboration with Prof. Dr. Timothy Kern, a renowned diabetic retinopathy expert from Case Western Reserve University. Refer to the ARVO 2018 Poster. Assessment of macular thickening in spontaneously diabetic rhesus monkeys.
Inclusion Criteria • (1) Female, age 13-18 years (equals to 40-60 years old in human adults), 6-7 kg; • (2) Diabetic duration: over 3 years; • (3) DME of single/both eyes; • (4) DME: the retinal thickness measured by Heidelberg Spectralis OCT in recent half year and diagnosed by FP/FFA with Kowa VX-20 Fundus Camera; • (5) CRT≥260 μm (Central Foveal Thickness) and/or Average Thickness of ETDRS regions≥319 μm. (Retinal Thickening is defined by Mean and SD of CRT and ETDRS thickness of normal monkeys). The retinal thickening is defined as thickness that exceeded the normal mean by 2 standard deviations. Nondiabetic monkey: Average thickness of the retina in nondiabetic animals was 192±11 μm at the fovea, and 307±15 and 328±13 measured at a distance of 1.5 mm from fovea on the temporal and nasal sides, respectively. This method was developed by the Primed team in collaboration with Prof. Dr. Timothy Kern, a renowned diabetic retinopathy expert from Case Western Reserve University. Refer to the ARVO 2018 Poster. Assessment of macular thickening in spontaneously diabetic rhesus monkeys; and • (6) with/without vessel leakage or non-perfusion area.
6 spontaneous DME rhesus monkeys (with medical record within one year) will be provided and 4 out of 6 monkeys will be enrolled in the Pre-study period (four weeks) for FA, FP, OCT and slit lamp examination as well as blood biochemistry before treatment. 4 Monkeys will be divided into two groups based on retinal thickness by OCT: • (1) Group 1, vehicle group, N=1; • (2) Group 2, test article group, N=3; (Route of administration: oral administration, once a day; Dosage: TBD).
Retinal thickness includes CST and ETDRS thickness. […]

[5] = monkey #2003, Day 14 versus baseline
[6] = monkey #2003, Day 56 versus baseline

SMILES: CNC(=O)c1cc(Oc2ccc(NC(=O)Nc3ccc(Cl)c(C(F)(F)F)c3)cc2)ccn1 [Sorafenib, reference compound]
- VEGF induced angiogenesis in Matrigel plugs (images, FIG. 1) ([1]; Sorafenib i.p. 30 mg/kg, positive control): inhibited

SMILES: CC(C)[C@H]1OC(=O)[C@H](Cc2ccccc2)N(C)C(=O)[C@@H](C(C)C)OC(=O)[C@H](Cc2ccccc2)N(C)C(=O)[C@@H](C(C)C)OC(=O)[C@H](Cc2ccccc2)N(C)C1=O [GYT-088, beauvericin]
- VEGF induced angiogenesis in Matrigel plugs (images, FIG. 1) ([1]; Beauvericin i.p. 2.4 mg/kg once per day for six days): inhibited
- Efficacy in inhibition of VEGF induced angiogenesis by hemoglobin level (FIG. 2), compared with Sorafenib ([1]; listed as Beauvericin): higher efficacy
- Efficacy in inhibition of VEGF induced angiogenesis by hemoglobin level (FIG. 2), compared with Sorafenib ([1]; listed as beauvericin): higher efficacy; also recorded: even better than Sorafenib
- NPDR related changes, FP ([2]; monkey #2003, D28, oral, once a day, baseline: hemorrhages): improved
- NPDR changes before and after dosing by FP ([2]; other animals of GYT-088 group (not #2003), any time points): No significant changes
- Crossing of blood-brain barrier (BBB) and blood-retinal barrier (BRB) into extravascular space of retina and vitreous body [3]: can be cross the blood-brain barrier (BBB) and particularly the blood-retinal barrier (BRB)
- Presence of test drug in the eyes of the animal [3]: observed in the eyes
- Macular Central Thickness, left eye ([4]; D14): 197 μm
- Macular Central Thickness, right eye ([4]; D14): 202 μm
- Fovea Thickness, left eye ([4]; D14): 249 μm
- Fovea Thickness, right eye ([4]; D14): 251 μm
- Macular Central Thickness, left eye ([4]; D28): 199 μm
- Macular Central Thickness, right eye ([4]; D28): 206 μm
- Fovea Thickness, left eye ([4]; D28): 253 μm
- Fovea Thickness, right eye ([4]; D28): 255 μm
- Macular Central Thickness, left eye ([4]; D56 (Double dosing)): 200 μm
- Macular Central Thickness, right eye ([4]; D56 (Double dosing)): 202 μm
- Fovea Thickness, left eye ([4]; D56 (Double dosing)): 254 μm
- Fovea Thickness, right eye ([4]; D56 (Double dosing)): 255 μm
- Reduction of central macular thickness (CMT), left eye [4, 5]: 7 μm
- Reduction of central macular thickness (CMT), right eye [4, 5]: 8 μm
- Reduction of fovea thickness, left eye [4, 5]: 8 μm
- Reduction of fovea thickness, right eye [4, 5]: 9 μm
- Reduction of central macular thickness, left eye [4, 6]: 6 μm
- Reduction of central macular thickness, right eye [4, 6]: 8 μm
- Reduction of macular thickness, left eye [4, 6]: 3 μm
- Reduction of macular thickness, right eye [4, 6]: 5 μm
- Efficacy in Diabetic Macular Edema (conclusion) ([4]; rhesus monkeys, oral, once a day): provided an efficacy in Diabetic Macular Edema

Reference: patent US11033603B2, “Method for treating ocular diseases” (priority 2019, dated 2021)
